According to patent US20240066051A1 (priority 2022, published 2024):

What was measured:
[1] = target: SARS-CoV-2 S-protein RBD E484Q (Severe acute respiratory syndrome coronavirus 2, UniProt P0DTC2, E484Q); assay type: binding
[2] = target: SARS-CoV-2 S-protein RBD L452R + T478K (Severe acute respiratory syndrome coronavirus 2, UniProt P0DTC2, L452R/T478K); assay type: binding
[3] = target: SARS-CoV-2 S-protein RBD T478K (Severe acute respiratory syndrome coronavirus 2, UniProt P0DTC2, T478K); assay type: binding
[4] = target: SARS-CoV-2 S-protein RBD L452R (Severe acute respiratory syndrome coronavirus 2, UniProt P0DTC2, L452R); assay type: binding
[5] = target: SARS-CoV-2 S-protein RBD N501Y (Severe acute respiratory syndrome coronavirus 2, UniProt P0DTC2, N501Y); assay type: binding
[6] = system: S-protein RBD mutants (VOC); assay type: binding, SARS-CoV-2
[7] = system: SARS-CoV-2 pseudotyped viral particles (Delta variant); assay type: binding
[8] = system: SARS-CoV-2 pseudotyped viral particles (Delta variant); assay type: cell-based
[9] = target: S-protein RBD L452R+T478K mutant (Severe acute respiratory syndrome coronavirus 2, UniProt P0DTC2, L452R/T478K)

Substance	ka [1]	kd [1]	ka [2]	kd [2]	ka [3]	kd [3]	affinity to heparin compared with the WT RBD [4]	ka [4]	kd [4]	affinity to heparin compared with the WT RBD [5]	ka [5]	kd [5]	inhibition of S-protein RBD mutant-heparin interaction compared with heparin [6]	inhibition of pseudotyped viral particle binding to heparin surface compared with heparin control [7]	IC50 for viral inhibition [8] [µg/mL]	inhibition of S-protein RBD mutant-heparin interaction compared with heparin [9]
heparin	5.2 × 10^4 1/MS	0.011 1/S	2.3 × 10^4 1/MS	0.014 1/S	1.2 × 10^4 1/MS	6.0 × 10^−3 1/S	lower affinity	161 1/MS	1.3 × 10^−3 1/S	higher affinity	1.7 × 10^4 1/MS	4.2 × 10^−4 1/S				
mucopolysaccharide polysulfate [MPS]													stronger inhibition	stronger inhibition	0.28	comparable inhibition to heparin
pentosan polysulfate [PPS]													stronger inhibition	stronger inhibition	0.07	comparable inhibition to heparin
